Data set [1] has as its target T1, human melatonin 1 receptors (human MT1 receptors) (Homo sapiens, UniProt P48039).
T1 construct: expressed in transfected cells
Nature of the data set: Melatonin receptor binding inhibitory test (MT1). As to conditions: 2-[125I] Iodomelatonin 400 pM solution, membrane fraction of CHO-hMelR7 cells, 25° C. for 2.5 hr. As to the method:
Biochim Biophys Acta. Vol. 1219(2), pp. 251-259, 1994) to give plasmid pAKKO-hMelR7 for animal cell expression. CHO/dhfr-cells (ATCC, #CRL-9096) were plated at a concentration of 0.3×10^6 cells/dish in a 6 cm culture dish (Becton Dickinson), and cultured under the conditions of 37° C., 5% CO2 for 48 hr. The cells were transfected with pAKKO-hMelR7 plasmid DNA (5 μg) using […] Transfection Kit (Amersham, #27-9268-01). The transfected cells were cultured in Dulbecco's modified Eagle medium (DMEM) (Sigma, #D6046) containing 10% dialyzed FBS ([…]), 1× Non-Essential Amino Acid (Invitrogen, #11140-050) and 50 μg/mL Gentamycin (Invitrogen, #15750-060), and the cell line that stably expressed the plasmid gene was selected. By a receptor binding assay using 2-[^125I] […] (3) Preparation of Cellular Membrane Fraction of CHO Cell (CHO-hMelR7 and CHO-hMT2) Stably Expressing Human MT1 and MT2 Receptors CHO-hMelR7 and CHO-hMT2 cells were plated using Cellfactory (Nunc, #170009) under the conditions of 1×10^8 cells/2000 mL/flask. The cells were grown to confluent, and recovered by the following method. As the medium for CHO-hMelR7 and CHO-hMT2, MEM α containing 10% FBS and penicillin/streptomycin was used. 300 ng/mL of geneticin was added to the medium for CHO-hMT2. The medium was discarded, cells were washed twice with 200 mL of EDTA/PBS(-), 200 mL of EDTA/PBS(-) was further added, and the cells were stood still at room temperature for 20 min until they were released. The cells were recovered in four 50 mL tubes (Becton Dickinson, #352070), and centrifuged at 1,500 rpm for 10 min at 4° C. using a low speed cooling centrifuge (Hitachi, CF7D2). The supernatant was discarded, the pellets in the four tubes were suspended in 10 mL of PBS(-), and combined in one tube (Becton Dickinson, #352070). The mixture was further centrifuged at 1,500 rpm for 10 min at 4° C., and the obtained pellets were suspended in 20 mL of ice-cooled homogenizing buffer [10 mM NaHCO3, 5 mM EDTA, Protease inhibitor Complete (Roche), pH 7.4]. The cell suspension was homogenized 3 times using a polytron homogenizer at 20,000 rpm for 30 sec. The obtained homogenate was centrifuged (2,000 rpm, 10 min, 4° C.) using a low speed cooling centrifuge. The supernatant was recovered in an ultracentrifugation tube and ultracentrifuged (40,000 rpm, 60 min, 4° C.) using an ultracentrifuge (Beckman, […]). To the obtained pellets was added a suspending buffer [50 mM Tris-HCl, 1 mM EDTA, Protease inhibitor Complete (Roche), pH 7.4], and the pellets were suspended by pipetting. The protein concentration of this suspension was measured, diluted to 2 mg/mL to give cellular membrane fractions of CHO-hMelR7 and CHO-hMT2 cells. […] Protein was quantified using BCA protein assay kit (Pierce) with BSA as the standard. (4) Preparation of Membrane Fraction Suspension Immediately before use, the membrane fractions of CHO-hMelR7 and CHO-hMT2 cells of the above-mentioned (3) were diluted 20-fold with assay buffer (50 mM Tris-HCl, pH 7.7). (5) Preparation of 2-[^125I] […] (6) Binding Reaction The assay buffer (80 μL) of the above-mentioned (4) was added to each well of a 96-well plate (type 3363, Corning). […] (7) Measurement Using a cell harvester (PerkinElmer), the binding reaction mixture in each well of the 96-well plate was transferred to a treated (immersed in 50 mM Tris, pH 7.7 in advance) filter plate (UniFilter GF/C, PerkinElmer) and filtered. After filtration, the plate was washed 4 times with the assay buffer, and dried in a dryer (42° C.) for 2 hr or more. 25 μL of a liquid scintillator (MicroScint O, PerkinElmer) was added to each well of the filter plate after drying, and the luminescence of scintillator was measured by TopCount (PerkinElmer) for 1 min. Specific binding is a value obtained by subtracting nonspecific binding from the total binding.

Data set [2] deals with T2, human melatonin 2 receptors (human MT2 receptors) (Homo sapiens, UniProt P49286).
T2 construct: expressed in transfected cells
T2 sequence (P49286 1-362): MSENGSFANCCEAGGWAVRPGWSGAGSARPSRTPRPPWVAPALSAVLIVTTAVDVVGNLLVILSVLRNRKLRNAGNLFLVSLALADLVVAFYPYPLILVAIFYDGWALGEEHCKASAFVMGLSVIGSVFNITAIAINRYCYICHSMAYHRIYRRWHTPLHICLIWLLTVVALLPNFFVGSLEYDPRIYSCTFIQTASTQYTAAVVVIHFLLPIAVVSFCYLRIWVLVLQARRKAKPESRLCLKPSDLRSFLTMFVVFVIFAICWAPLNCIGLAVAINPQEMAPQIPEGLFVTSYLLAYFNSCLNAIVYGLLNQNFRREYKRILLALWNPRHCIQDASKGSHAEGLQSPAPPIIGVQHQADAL
Nature of the data set: Melatonin receptor binding inhibitory test (MT2). As to conditions: 2-[125I] Iodomelatonin 1 nM solution, membrane fraction of CHO-hMT2 cells, 25° C. for 2.5 hr. As to the method: Melatonin Receptor Binding Inhibitory Test (2) Preparation of CHO-hMT2 Cells Expressing Human Melatonin 2 Receptors A cDNA fragment (SEQ ID NO: 2) encoding full-length of human melatonin 2 receptors (human MT2 receptors) was incorporated into expression vector pCMV-Script (Stratagene, #212220) to give the plasmid that was pCMV-human MT2 receptors expression vector for animal cell expression. CHO-K1 cells (ATCC, #CCL-61) were plated at the concentration of 1.5×10^5 cells/cm^2 in a 6 well plate (ASAHI TECHNO GLASS), and cultured under the conditions of 37° C., 5% CO2 for 24 hr. For gene transfection, solution obtained by blending pCMV-human MT2 receptors expression vector (1.9 μg), Lipofectamine Transfection Reagent (Invitrogen, #18324-012) (11.3 μL) and Minimum Essential Medium Eagle (MEM) medium (Sigma, M8042) (93.8 μL), and reacting at room temperature for 20 min was added to the cells per one well. The transfected cells were cultured in MEM medium containing 10% FBS (Life Technology) and 300 μg/mL Geneticin (GIBCO, #10131), and the cell line that stably expressed the plasmid gene was selected. By a receptor binding assay using 2-[^125I] […] (3) Preparation of Cellular Membrane Fraction of CHO Cell (CHO-hMelR7 and CHO-hMT2) Stably Expressing Human MT1 and MT2 Receptors CHO-hMelR7 and CHO-hMT2 cells were plated using Cellfactory (Nunc, #170009) under the conditions of 1×10^8 cells/2000 mL/flask. The cells were grown to confluent, and recovered by the following method. As the medium for CHO-hMelR7 and CHO-hMT2, MEM α containing 10% FBS and penicillin/streptomycin was used. 300 ng/mL of geneticin was added to the medium for CHO-hMT2. The medium was discarded, cells were washed twice with 200 mL of EDTA/PBS(-), 200 mL of EDTA/PBS(-) was further added, and the cells were stood still at room temperature for 20 min until they were released. The cells were recovered in four 50 mL tubes (Becton Dickinson, #352070), and centrifuged at 1,500 rpm for 10 min at 4° C. using a low speed cooling centrifuge (Hitachi, CF7D2). The supernatant was discarded, the pellets in the four tubes were suspended in 10 mL of PBS(-), and combined in one tube (Becton Dickinson, #352070). The mixture was further centrifuged at 1,500 rpm for 10 min at 4° C., and the obtained pellets were suspended in 20 mL of ice-cooled homogenizing buffer [10 mM NaHCO3, 5 mM EDTA, Protease inhibitor Complete (Roche), pH 7.4]. The cell suspension was homogenized 3 times using a polytron homogenizer at 20,000 rpm for 30 sec. The obtained homogenate was centrifuged (2,000 rpm, 10 min, 4° C.) using a low speed cooling centrifuge. The supernatant was recovered in an ultracentrifugation tube and ultracentrifuged (40,000 rpm, 60 min, 4° C.) using an ultracentrifuge (Beckman, […]). To the obtained pellets was added a suspending buffer [50 mM Tris-HCl, 1 mM EDTA, Protease inhibitor Complete (Roche), pH 7.4], and the pellets were suspended by pipetting. The protein concentration of this suspension was measured, diluted to 2 mg/mL to give cellular membrane fractions of CHO-hMelR7 and CHO-hMT2 cells. […] Protein was quantified using BCA protein assay kit (Pierce) with BSA as the standard. (4) Preparation of Membrane Fraction Suspension Immediately before use, the membrane fractions of CHO-hMelR7 and CHO-hMT2 cells of the above-mentioned (3) were diluted 20-fold with assay buffer (50 mM Tris-HCl, pH 7.7). (5) Preparation of 2-[^125I] […] (6) Binding Reaction The assay buffer (80 μL) of the above-mentioned (4) was added to each well of a 96-well plate (type 3363, Corning). […] (7) Measurement Using a cell harvester (PerkinElmer), the binding reaction mixture in each well of the 96-well plate was transferred to a treated (immersed in 50 mM Tris, pH 7.7 in advance) filter plate (UniFilter GF/C, PerkinElmer) and filtered.

The record followed here is US8273761B2, “Tricyclic compound and medical use thereof” (Takeda Pharmaceutical Company Limited, priority 2006, dated 2012).

Structures are written as SMILES. Bounds are passed on as bounds.

T1 sequence (P48039 whole entry): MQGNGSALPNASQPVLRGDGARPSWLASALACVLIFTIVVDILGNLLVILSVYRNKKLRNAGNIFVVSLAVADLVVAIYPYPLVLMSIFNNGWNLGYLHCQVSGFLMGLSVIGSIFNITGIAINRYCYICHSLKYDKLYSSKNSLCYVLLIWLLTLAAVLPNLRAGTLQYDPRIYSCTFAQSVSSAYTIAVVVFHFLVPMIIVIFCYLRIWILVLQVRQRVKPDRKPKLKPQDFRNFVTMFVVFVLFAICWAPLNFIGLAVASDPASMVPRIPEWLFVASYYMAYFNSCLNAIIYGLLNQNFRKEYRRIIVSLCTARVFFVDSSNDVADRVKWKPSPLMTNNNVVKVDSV

As a reminder, the melting point is the temperature of the solid-liquid transition. Take `CCC(=O)NC/C=C1\CCc2ncc3c(c21)CCO3` [Example 32, N-[(2E)-2-(1,2,6,7-tetrahydro-8H-cyclopenta[b]furo[3,2-d]pyridin-8-ylidene)ethyl]propanamide]: the melting point lay within 163 to 164 °C.

By IC50 is commonly meant the midpoint of a concentration-inhibition curve. For `O=C(NCCC1CCc2cnc3c(c21)CCO3)C1CC1` (centres unmarked) [Example 26, N-[2-(1,6,7,8-tetrahydro-2H-cyclopenta[d]furo[2,3-b]pyridin-8-yl)ethyl]cyclopropanecarboxamide], the IC50 in data set [1] is not above 100 nM. Same read-out and setting: the figure for `CC(=O)NCCC1CCc2cnc3c(c21)CCO3` (centres unmarked) [Example 19, N-[2-(1,6,7,8-tetrahydro-2H-cyclopenta[d]furo[2,3-b]pyridin-8-yl)ethyl]acetamide] is not above 100 nM. As to `CCC(=O)NCCc1cnn2ccc3occc3c12` [Example 1, N-(2-furo[3,2-c]pyrazolo[1,5-a]pyridin-1-ylethyl)propanamide], the melting point was in the range of 104 to 106 °C. This compound returned an IC50 in data set [2] not above 100 nM.
